# Measured values taken from PubChem BioAssay (NCI).
#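 Abbreviation: GI50, concentration required for 50% inhibition of growth. TGI denotes the concentration required for complete inhibition of growth.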
# How the values were obtained:
# Test in all cases: NCI anticancer screen, dose series, 384-well format
# [1] = test system: K-562 leukemia
# [2] = test system: OVCAR-5 ovarian
# [3] = test system: HS 578T breast
# [4] = test system: CCRF-CEM leukemia
# [5] = test system: BT-549 breast
# [6] = test system: NCI-H226 lung
# [7] = test system: SN12C renal
# [8] = test system: DU-145 prostate
# [9] = test system: COLO 205 colon
# [10] = test system: IGROV1 ovarian
# [11] = test system: RPMI-8226 leukemia
# [12] = test system: ACHN renal
# [13] = test system: MDA-MB-231 breast
# [14] = test system: SK-MEL-2 melanoma
# [15] = test system: NCI-H522 lung
# [16] = test system: SF-295 CNS
# [17] = test system: HOP-92 NSCLC
# [18] = test system: HL-60(TB) leukemia
# [19] = test system: TK-10 renal
# [20] = test system: OVCAR-8 ovarian
# [21] = test system: SF-539 CNS
# [22] = test system: SF-268 CNS
# [23] = test system: SK-MEL-5 melanoma
# [24] = test system: OVCAR-4 ovarian
# [25] = test system: NCI/ADR-RES ovarian
# [26] = test system: HCT-15 colon
# [27] = test system: SK-OV-3 ovarian
# [28] = test system: SK-MEL-28 melanoma
# [29] = test system: SNB-75 CNS
# [30] = test system: 786-0 renal
# [31] = test system: PC-3 prostate
# [32] = test system: NCI-H23 lung
# [33] = test system: MDA-MB-468 breast
# [34] = test system: U251 glioblastoma
# [35] = test system: A549 NSCLC
# [36] = test system: EKVX NSCLC
# [37] = test system: NCI-H322M lung
# [38] = test system: KM12 colon
# [39] = test system: A498 renal
# [40] = test system: SW-620 colon
# [41] = test system: OVCAR-3 ovarian
# [42] = test system: HT29 colon
# [43] = test system: SNB-19 CNS
# [44] = test system: LOX IMVI melanoma
# [45] = test system: MOLT-4 leukemia
# [46] = test system: HCC-2998 colon
# [47] = test system: M14 melanoma
# [48] = test system: UACC-62 melanoma
# [49] = test system: CAKI-1 renal
# [50] = test system: T-47D breast
# [51] = test system: RXF 393 renal
# [52] = test system: MCF7 breast
# [53] = test system: SR leukemia
# [54] = test system: MDA-MB-435 melanoma
# [55] = test system: UACC-257 melanoma
# [56] = test system: HCT-116 colon
# [57] = test system: MALME-3M melanoma
# [58] = test system: NCI-H460 NSCLC
# [59] = test system: HOP-62 NSCLC
compound,measurement,setting,value
Cc1cc(-c2ncc(CC(=O)Nc3ccc(-c4cnccn4)cn3)cc2C)ccn1,GI50,[1],10.4 µM
same,TGI,[1],> 100 µM
same,GI50,[2],> 100 µM
same,TGI,[2],> 100 µM
same,GI50,[3],> 100 µM
same,TGI,[3],> 100 µM
same,GI50,[4],12.2 µM
same,TGI,[4],49 µM
same,GI50,[5],32.5 µM
same,TGI,[5],> 100 µM
same,GI50,[6],61.6 µM
same,TGI,[6],> 100 µM
same,GI50,[7],39.2 µM
same,TGI,[7],> 100 µM
same,GI50,[8],> 100 µM
same,TGI,[8],> 100 µM
same,GI50,[9],> 93.6 µM
same,TGI,[9],> 100 µM
same,GI50,[10],56.3 µM
same,TGI,[10],> 100 µM
same,GI50,[11],13.8 µM
same,TGI,[11],34.7 µM
same,GI50,[12],64.4 µM
same,TGI,[12],> 100 µM
same,GI50,[13],> 100 µM
same,TGI,[13],> 100 µM
same,GI50,[14],42.6 µM
same,TGI,[14],> 100 µM
same,GI50,[15],31.5 µM
same,TGI,[15],> 100 µM
same,GI50,[16],49.3 µM
same,TGI,[16],> 100 µM
same,GI50,[17],> 100 µM
same,TGI,[17],> 100 µM
same,GI50,[18],6.52 µM
same,TGI,[18],24.1 µM
same,GI50,[19],65.7 µM
same,TGI,[19],> 100 µM
same,GI50,[20],30.3 µM
same,TGI,[20],> 100 µM
same,GI50,[21],> 57.7 µM
same,TGI,[21],> 100 µM
same,GI50,[22],> 100 µM
same,TGI,[22],> 100 µM
same,GI50,[23],11.6 µM
same,TGI,[23],27.2 µM
same,GI50,[24],25.5 µM
same,TGI,[24],> 100 µM
same,GI50,[25],14.4 µM
same,TGI,[25],47.3 µM
same,GI50,[26],57.1 µM
same,TGI,[26],> 100 µM
same,GI50,[27],> 66 µM
same,TGI,[27],> 100 µM
same,GI50,[28],> 100 µM
same,TGI,[28],> 100 µM
same,GI50,[29],> 58.8 µM
same,TGI,[29],> 100 µM
same,GI50,[30],59.5 µM
same,TGI,[30],> 100 µM
same,GI50,[31],51.1 µM
same,TGI,[31],> 100 µM
same,GI50,[32],20.5 µM
same,TGI,[32],> 100 µM
same,GI50,[33],3.43 µM
same,TGI,[33],33.1 µM
same,GI50,[34],48.6 µM
same,TGI,[34],> 100 µM
same,GI50,[35],> 70.5 µM
same,TGI,[35],> 100 µM
same,GI50,[36],21.8 µM
same,TGI,[36],> 100 µM
same,GI50,[37],43 µM
same,TGI,[37],> 100 µM
same,GI50,[38],> 82.9 µM
same,TGI,[38],> 100 µM
same,GI50,[39],68.8 µM
same,TGI,[39],> 100 µM
same,GI50,[40],88.6 µM
same,TGI,[40],> 100 µM
same,GI50,[41],> 86.3 µM
same,TGI,[41],> 100 µM
same,GI50,[42],74.5 µM
same,TGI,[42],> 100 µM
same,GI50,[43],64 µM
same,TGI,[43],> 100 µM
same,GI50,[44],28.4 µM
same,TGI,[44],> 100 µM
same,GI50,[45],12.9 µM
same,TGI,[45],26.2 µM
same,GI50,[46],> 88.8 µM
same,TGI,[46],> 100 µM
same,GI50,[47],> 100 µM
same,TGI,[47],> 100 µM
same,GI50,[48],56.1 µM
same,TGI,[48],> 100 µM
same,GI50,[49],49.3 µM
same,TGI,[49],> 100 µM
same,GI50,[50],9.51 µM
same,TGI,[50],> 52.8 µM
same,GI50,[51],21.3 µM
same,TGI,[51],> 100 µM
same,GI50,[52],27.3 µM
same,TGI,[52],> 100 µM
same,GI50,[53],3.81 µM
same,TGI,[53],27.9 µM
same,GI50,[54],38.6 µM
same,TGI,[54],> 100 µM
same,GI50,[55],27.8 µM
same,TGI,[55],> 100 µM
same,GI50,[56],29 µM
same,TGI,[56],> 100 µM
same,GI50,[57],> 100 µM
same,TGI,[57],> 100 µM
same,GI50,[58],28.6 µM
same,TGI,[58],> 100 µM
same,GI50,[59],39.7 µM
same,TGI,[59],> 100 µM
